Two compounds from patent US6387933B1, “Insecticidal compositions and insecticidal methods” (Sumitomo Chemical Company, Limited, priority 2001, dated 2002) can be followed below.

Molecules are shown by their SMILES.

Experiment [1] has as its system silverleaf whiteflies. As to the kind of experiment: Test Example 2: spray on cabbage seedlings infested with silverleaf whiteflies. The settings on record: 8 days after spray. The class given is in vivo. As for the experimental part:
(§1) Cabbage seedlings planted in 3 ounces plastic cup were placed in a net cage containing many living silverleaf whiteflies for 24 hours, so that many silverleaf whiteflies became parasitic on the cabbage seedlings. A designated amount of each of acetamiprid on the market (commercial name, Mospilan water-soluble powder: produced by Nippon Soda), pyriproxyfen on the market (commercial name, Lano emulsifiable concentrate: produced by Sumitomo Chemical) and a mixture of acetamiprid and pyriproxyfen on the market were diluted with water, and then sprayed over the cabbage seedlings with spray gun. The number of silverleaf whiteflies (i.e., the total number of adults and larvae) surviving on the cabbage seedlings was examined just before and after 8 days from the treatment.

For experiment [2], the system named is silverleaf whiteflies. Kind of experiment: Test Example 1: spray on cabbage seedlings infested with silverleaf whiteflies. In kind it is in vivo. The note with it: 50 ppm; adults and larvae on cabbage seedling, 8 days after spray. On the procedure:
as §1

For the compound `CC(COc1ccc(Oc2ccccc2)cc1)Oc1ccccn1` (centres unmarked) [pyriproxyfen, 4-phenoxyphenyl 2-(2-pyridyloxy)propyl ether], the “Number of surviving insects/pot after 8 days” value was 41 insects/pot in experiment [1] (5 ppm), 114 insects/pot in experiment [1] (10 ppm), 69 insects/pot in experiment [1] (50 ppm) and 21 insects/pot in experiment [2].
Taken in the same sequence, the figures for `C/C(=N\C#N)N(C)Cc1ccc(Cl)nc1` [acetamiprid, (E)-N^1-[(6-chloro-3-pyridyl)methyl]-N^2-cyano-N^1-methylacetamidine] were 41 insects/pot, 16 insects/pot, 24 insects/pot and 69 insects/pot.
